These results are taken from patent publication US5436246A, “Serotonin receptor agents” (priority 1993, dated 1995).

Where a name gives a salt, the structure may show the parent alone. Read-outs that look alike come from different tables or passages of the source.

For experiment [1] the following is noted: Eur. J. Pharmacol. 144, 223 (1987); 158, 53 (1988); cited from earlier work.
For experiment [2] the following is noted: Eur. J. Pharmacol. 180, 339 (1990); 182, 63 (1990); cited from earlier work.
The conditions of experiment [3]: Eide, Neuropharm. 31, 541 (1992); cited from earlier work.
The conditions of experiment [4]: Bielenberg et al., Stroke Supplement IV, 21 (1990); cited from earlier work.
The target in another experiment is T1, 5HT1A receptor (Rattus norvegicus, UniProt P19327).
T1 sequence (P19327 1-422): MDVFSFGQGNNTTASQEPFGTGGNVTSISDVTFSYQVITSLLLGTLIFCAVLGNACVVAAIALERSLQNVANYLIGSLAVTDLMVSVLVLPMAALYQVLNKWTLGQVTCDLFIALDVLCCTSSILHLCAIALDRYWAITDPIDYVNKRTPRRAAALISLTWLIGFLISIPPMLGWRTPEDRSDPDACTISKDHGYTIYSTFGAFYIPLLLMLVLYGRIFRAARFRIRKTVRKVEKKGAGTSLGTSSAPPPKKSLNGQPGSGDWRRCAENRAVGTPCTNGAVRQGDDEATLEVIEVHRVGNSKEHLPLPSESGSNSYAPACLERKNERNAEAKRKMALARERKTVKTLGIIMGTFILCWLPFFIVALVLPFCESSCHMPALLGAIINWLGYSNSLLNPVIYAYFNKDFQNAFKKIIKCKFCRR
In words: 5HT1A receptor binding affinity (procedure of Gozlan et al.). Here is the method: In the following examples, the compounds binding affinity for both the 5HT1A receptor and 5HT1D receptors is reported. The compounds affinity for the 5HT1D site was determined by the binding procedure of Peroutka et al as reported in European Journal of Pharmacology, Vol. 163 at pages 133-166 (1989). The compounds affinity for the 5HT1A receptor was determined by the procedure of Gozlan et al., as reported in Nature, Volume 305, at pages 140-142 (1983). Where multiple determinations of the binding affinity have been performed, the average is given followed by the number of determinations in parentheses. Also, the PA2 value for the saphenous vein preparation as described in this application is given, followed by the intrinsic (agonist) activity in parentheses, expressed as a percentage. [drawing 10] […]

The target of the next experiment is T2, 5HT1D receptor (Bos taurus, UniProt F1MGM3).
T2 construct: from tissue
In words: 5HT1D receptor binding affinity (procedure of Peroutka et al.).

A short description of experiment [5]: acetic acid writhing test (analgesic effect). It is filed as in vivo. The conditions noted are these: Mus musculus, sc, 0.5 h; mice, subcutaneous, 30 minutes before acetic acid i.p. (0.25% v/v, 0.4 ml). On the procedure:
Eide, Neuropharm. 31, 541 (1992). […] One such model is the acetic acid writhing test. In this test, a group containing from 5-10 mice are administered the test compound subcutaneously. Thirty minutes after administration of the test compound, the mice are administered acetic acid intraperitoneally (0.25 % v/v, 0.4 ml). The mice are then observed for squirming and writhing. Analgesics block this squirming and writhing.
(In writhing tests, fewer writhes than in controls are read as antinociception.)

The next experiment concerns the target 5-HT1D receptors (Canis lupus familiaris, UniProt P79250). On the set-up: species or system dog (canine). On the procedure:
In the following examples, the compounds binding affinity for both the 5HT1A receptor and 5HT1D receptors is reported. The compounds affinity for the 5HT1D site was determined by the binding procedure of Peroutka et al as reported in European Journal of Pharmacology, Vol. 163 at pages 133-166 (1989). The compounds affinity for the 5HT1A receptor was determined by the procedure of Gozlan et al., as reported in Nature, Volume 305, at pages 140-142 (1983). Where multiple determinations of the binding affinity have been performed, the average is given followed by the number of determinations in parentheses. Also, the PA2 value for the saphenous vein preparation as described in this application is given, followed by the intrinsic (agonist) activity in parentheses, expressed as a percentage. [drawing 10]
We have used canine saphenous vein for studying 5-HT1D receptors which is similar, although not totally identical, to human coronary 5-HT1D receptors (see Humphrey, P. P. A., Feniuk, W., Perren, M. J., Connor, H. E., Oxford, A. W., Coates, I. H. and Butina, D.: GR43175, a selective agonist for the 5-HT1 -like receptor in dog isolated saphenous vein, Br. J. Pharmacol. 94:1123-1132, 1988; Kaumann, A. J.: Human heart 5-HT receptors, Second international symposium on serotonin, from cell biology to pharmacology and therapeutics, Houston, Sep. 15-18, 1992).
Mongrel dogs weighing 12-18 kg were killed by an intravenous injection of an overdose of sodium pentobarbitol. Saphenous veins were isolated, removed, cleaned of surrounding connective tissue, and cut into helical strips in a dish containing Krebs-Henseleit solution with the following composition in mM: NaCl, 110.0; KCl, 4.8; CaCl2, 2.5; KH2 PO4, 1.2; EDTA(NaEDTA), 0.027; and was constantly bubbled with 95% O2 -5% CO2. Unless otherwise specified, the endothelium of the […] was removed by rubbing with a metal rod. The intactness or absence of functional endothelium was checked by the presence or absence of a relaxant effect of acetycholine (10^-5 M) in phenylephrine-contracted tissues (see Furchgott, R. F. and Zawadzki, J. V.: The obligatory role of endothelial cells in the relaxtion of arterial smooth muscle by acetycholine, Nature 288:373-376, 1980). Each muscle strip (3×30 mm) was set up in a tissue bath at 37° C. and loaded with 2 gram tension. Contractility of the tissues was measured isometrically with a Grass FT03 force-displacement transducer and recorded on a Strip chart recorder. The tissues were allowed to stabilize for 2 hours before the experiment was started, during which time they were washed repeatedly. Tissues were contracted with 3.162×10^-6 M phenylephrine and 40 mM KCl, which produced 60-70% of their maximum contractile responses, to condition the tissue. 5-HT dose response experiment was conducted. Test compounds were then incubated with the tissue before a second 5-HT dose response experiment was performed. Data are expressed as the pA2 value, the negative logarithm of the molar concentration of antagonist which produced a 2 fold shift in ED50 values of 5-HT dose response curves (see Van Rossum, J. M.: Cumulative dose-response curve: Technique for the making of dose-response curves in isolated organs and the evaluation of drug parameters, Arch. Int. Pharmacodyn. Ther. 143:299-330, 1963).

Experiment [6] in a line: fear-potentiated startle test (anxiolytic activity). It is filed as in vivo. The conditions noted are these: rats. The text has this: Animals were trained and tested for tear-potentiated startle in a modification of the methods reported in Hitchcock and Davis (1991). Briefly, rats first were given a matching session consisting of 30 startle stimuli. […] A training session took place one to two days later in which the rats were given 10 paired trials consisting of a visual conditioned stimulus (a light) immediately followed by an unconditioned stimulus (footshock). The test session took place two days later. The product of Example No. 15 was administered s.c. in the flank and fifteen minutes later, the rats were given startle stimuli in the absence of the conditioned stimulus (baseline startle measurement; Noise-Alone trials) or in the presence of the conditioned stimulus (fear-potentiated startle measurement; Light-Noise trials). Fear-potentiated startle was defined as higher startle in the presence of the conditioned fear stimulus than in its absence.
Statistical analysis was done on the mean startle amplitudes on the Noise-Alone and Light-Noise trials, and the mean Difference scores (Light-Noise minus Noise-Alone means). One-way analysis of variance was run on the Difference scores and on the Noise-Alone scores. Multiple comparison test (Fisher PLSD) were used to compare each dose group to the vehicle control group.

In experiment [7] the test system is dorsal raphe nucleus neurons. The conditions noted are these: Vandermaelen et al.; cited from earlier work.
For experiment [8] the following is noted: Peroutka et al.; Saxena et al.; Hamel et al.; cited from earlier work.
For experiment [9] the following is noted: early clinical trials; cited from earlier work.

T2 sequence (F1MGM3 1-403): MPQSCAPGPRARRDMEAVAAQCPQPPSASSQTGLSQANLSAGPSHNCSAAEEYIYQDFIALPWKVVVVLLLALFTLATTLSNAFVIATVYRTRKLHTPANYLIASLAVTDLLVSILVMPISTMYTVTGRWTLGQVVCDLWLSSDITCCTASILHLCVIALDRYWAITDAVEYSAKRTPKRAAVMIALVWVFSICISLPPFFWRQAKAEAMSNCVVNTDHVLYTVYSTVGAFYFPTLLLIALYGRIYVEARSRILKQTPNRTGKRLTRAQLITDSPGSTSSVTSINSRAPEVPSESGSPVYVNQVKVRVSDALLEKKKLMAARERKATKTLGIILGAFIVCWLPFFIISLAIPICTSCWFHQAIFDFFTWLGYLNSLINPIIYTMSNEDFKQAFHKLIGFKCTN
5-HT1D receptors, sequence (P79250 whole entry): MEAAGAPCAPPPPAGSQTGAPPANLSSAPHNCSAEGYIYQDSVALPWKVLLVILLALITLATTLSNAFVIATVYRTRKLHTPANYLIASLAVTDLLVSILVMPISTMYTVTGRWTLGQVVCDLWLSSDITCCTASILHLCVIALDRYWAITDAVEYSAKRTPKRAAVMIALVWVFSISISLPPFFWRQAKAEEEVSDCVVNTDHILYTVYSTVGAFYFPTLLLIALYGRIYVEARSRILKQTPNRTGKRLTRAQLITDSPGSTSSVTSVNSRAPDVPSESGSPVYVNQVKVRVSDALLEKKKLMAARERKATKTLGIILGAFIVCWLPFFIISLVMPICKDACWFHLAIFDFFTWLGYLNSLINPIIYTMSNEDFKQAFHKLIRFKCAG
Method for 5HT1D receptor: The compounds affinity for the 5HT1D site was determined by the binding procedure of Peroutka et al as reported in European Journal of Pharmacology, Vol. 163 at pages 133-166 (1989). […] Where multiple determinations of the binding affinity have been performed, the average is given followed by the number of determinations in parentheses.

In the case of `CCCN(CCC)C1CCc2cccc(O)c2C1` (stereo not shown) [8-OH DPAT, 8-hydroxy-2-(di-N-propylamino) tetralin], in experiment [1], the “effect in rodent models for depression” value is reported as “effective in rodent models for depression”. Further, in [2], the “antihypertensive effect in rodent models” value was “effective for the treatment of hypertension in rodent models”. Moreover, the analgesic effect entry in experiment [3] was “effective as analgesics”. In addition, the “neuronal destruction in rodent models of stroke” value (from here on “neuronal destruction”) in experiment [4] is on record as “inhibited or decreased neuronal destruction”.

Turning to `CCCN(CCC)C1Cc2c[nH]c3ccc(OC)c(c23)C1.Cl` (stereo not shown) [Bay R 1531], the “neuronal destruction” value in experiment [4] was “inhibited or decreased neuronal destruction”.

One may read the IC50 as the concentration that inhibits the measured activity by half. Usually ED50 stands for the dose that gives a 50% effect, or the effect in half of the subjects. The low end stands for an effect at a small dose, the high end for a need for a large dose. Consider `Cl.OCc1cc2c(N3CCN(CCc4ccccc4)CC3)cccc2s1` [Example 7, 4[4(2-phenylethyl)-1-piperazinyl]-benzo[b]thiophene-2-methanol monohydrochloride], for which the IC50 on 5HT1A receptor amounted to 0.6 nM; at 5HT1D receptor, 2.4 nM. This molecule registered an ED50 in experiment [5] of 0.61 mg/kg.

`Cl.NC(=O)c1cc2c(N3CCN(CCc4ccccc4)CC3)cccc2s1` [Example 9, 4-[4-(2-phenylethyl)-1-piperazinyl]-benzo[b]thiophene-2-carboxamide monohydrochloride]: the IC50 turned out to be 0.5 nM on 5HT1A receptor and 1.6 nM on 5HT1D receptor. For the same molecule, at 5-HT1D receptors, the Kb was 10.2 nM. This molecule also displayed an ED50 in experiment [5] of 0.12 mg/kg.

Turning to `OCc1cc2c(N3CCN(CCCc4ccccc4)CC3)cccc2s1` [Example 15, 4-[4-(3,phenylpropyl)-1-piperazinyl]-benzo[b]thiophene-2-methanol monohydrochloride], the IC50 on 5HT1A receptor (average of multiple determinations where number in parentheses is given, read-out: IC50 (5HT1A Binding Affinity)) was 1.8 nM; on 5HT1D receptor (average of multiple determinations where number in parentheses is given, read-out: IC50 (5HT1D Binding Affinity)), 23 nM. In experiment [5], the 50% effective dose (ED50) is 1.74 mg/kg. In addition, the “decrease of fear-potentiated startle” value in [6] (doses of 2.5, 20.0, and 40.0 mg/kg s.c., p<.05 vs vehicle, Fisher PLSD) is listed as “decreased fear-potentiated startle with statistically significant effects”. The “anxiolytic activity in the fear-potentiated startle test” value in experiment [6] (s.c., 15 minutes before test) is listed as “significant anxiolytic activity”. For the same molecule, in [6] (s.c., Noise-Alone trials), the “baseline startle reflex (muscle relaxant activity)” value is on record as “did not decrease the baseline startle reflex”.

Turning to `Cl.NC(=O)c1cc2c(N3CCN(CCc4ccc(Cl)cc4)CC3)cccc2s1` [Example 21, 4-[4-[2-(4-chlorophenyl)ethyl]-1-piperazinyl]-benzo[b]thiophene-2-carboxamide monohydrochloride], the 50% inhibitory concentration (IC50) on 5HT1A receptor worked out at 2 nM; on 5HT1D receptor, 14 nM. The molecule also came in with an ED50 in [5] of 0.05 mg/kg.

As to `Cc1ccc(CCN2CCN(c3cccc4sc(C(N)=O)cc34)CC2)cc1` [Example 29, 4-[4-[2-(4-methylphenyl)ethyl]-1-perazinyl]-benzo[b]thiophene-2-carboxamide monohydrochloride], the 50% inhibitory concentration (IC50) at 5HT1A receptor was 1 nM; on 5HT1D receptor it was 3 nM. This molecule also gave an ED50 in experiment [5] of 0.03 mg/kg.

On to `COCc1cc2c(N3CCN(CCc4ccc(F)cc4)CC3)cccc2s1` [Example 46, 4-[4-(2-(4-fluorophenyl)-ethyl)-1-piperazinyl]benzo [b]thiophene 2-methoxymethyl hydrochloride, 0.2 hydrate], for which the IC50 on 5HT1A receptor (read-out: IC50 (5HT1A Binding Affinity), average of multiple determinations where number in parentheses is given) was 4 nM; at 5HT1D receptor (read-out: IC50 (5HT1D Binding Affinity), average of multiple determinations where number in parentheses is given), 17 nM. For the same molecule, the Emax at 5-HT1D receptors (dog, read-out: intrinsic (agonist) activity, saphenous vein preparation) stood at 5%. At 5-HT1D receptors (negative log molar concentration of antagonist producing 2 fold shift in ED50 of 5-HT dose response curves), the “pA2 (blocking of 5-HT1-like-mediated contraction in canine saphenous vein)” value was determined as 7.98.

On to `O=C1CC2(CCCC2)CC(=O)N1CCCCN1CCN(c2ncccn2)CC1` [buspirone], for which the raphe cell firing entry in experiment [7] is “inhibit raphe cell firing”.

On to `O=C(NCCN1CCN(c2cccc3c2OC[C@H](CO)O3)CC1)c1ccc(F)cc1` [flesinoxan], for which the “antihypertensive effect in rodent models” value in [2] is given as “effective for the treatment of hypertension in rodent models”.

With `CC1(C)CC(=O)N(CCCCN2CCN(c3ncccn3)CC2)C(=O)C1` [gepirone], the “neuronal destruction” value in experiment [4] is “inhibited or decreased neuronal destruction”.

Take `O=C1c2ccccc2S(=O)(=O)N1CCCCN1CCN(c2ncccn2)CC1` [ipsapirone]: in experiment [4], the “neuronal destruction” value is recorded as “inhibited or decreased neuronal destruction”.

In the case of `CNS(=O)(=O)Cc1ccc2[nH]cc(CCN(C)C)c2c1` [sumatriptan], in experiment [8], the “antimigraine-like effects in animal models” value was “produce antimigraine-like effects in animal models”. The “termination of acute migraine attacks” value in experiment [9] is listed as “terminate acute migraine attacks in early clinical trials”.
